Experimental data taken from paper doi:10.1101/2020.09.29.318170v1 (biorxiv, 2020).

Assays:
Assay type in all cases: biochemical
[1] = target: T1, Pd957 (with ΔNHAB1) (Phoenix dactylifera, UniProt A0A8B7BRF0); test: pNPP phosphatase inhibition assay; conditions: read-out: % inhibition of HAB1 at 10 μM
T1 sequence (A0A8B7BRF0 1-215): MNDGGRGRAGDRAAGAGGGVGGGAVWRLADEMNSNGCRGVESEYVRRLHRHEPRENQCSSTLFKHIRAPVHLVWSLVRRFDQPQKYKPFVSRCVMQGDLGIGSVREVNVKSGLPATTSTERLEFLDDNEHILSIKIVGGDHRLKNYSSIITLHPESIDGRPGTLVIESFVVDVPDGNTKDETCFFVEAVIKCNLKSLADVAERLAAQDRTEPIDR
T1 sequence (Q9CAJ0 179-511 partner limits assumed): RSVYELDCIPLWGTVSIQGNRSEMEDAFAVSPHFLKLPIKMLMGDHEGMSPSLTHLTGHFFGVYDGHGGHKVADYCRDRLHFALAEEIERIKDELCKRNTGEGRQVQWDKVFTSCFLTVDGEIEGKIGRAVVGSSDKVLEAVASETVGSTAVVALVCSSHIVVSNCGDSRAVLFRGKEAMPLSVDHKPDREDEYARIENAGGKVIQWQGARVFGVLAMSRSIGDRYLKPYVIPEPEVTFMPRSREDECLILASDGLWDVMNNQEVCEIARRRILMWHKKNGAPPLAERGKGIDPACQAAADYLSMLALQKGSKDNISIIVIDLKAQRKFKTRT

[2] = target: T2, Pd27 (with ΔNHAB1) (Phoenix dactylifera, UniProt A0A8B7BJV2); test: pNPP phosphatase inhibition assay
T2 sequence (A0A8B7BJV2 1-205): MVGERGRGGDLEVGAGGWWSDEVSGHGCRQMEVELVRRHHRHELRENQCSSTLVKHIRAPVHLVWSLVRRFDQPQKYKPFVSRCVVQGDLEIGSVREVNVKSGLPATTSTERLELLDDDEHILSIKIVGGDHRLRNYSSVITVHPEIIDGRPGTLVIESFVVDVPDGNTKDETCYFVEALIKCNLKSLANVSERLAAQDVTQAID
T2 sequence (Q9CAJ0 179-511 partner limits assumed): T1 sequence (Q9CAJ0 179-511 partner limits assumed)

[3] = target: T3, Pd32 (with PdPP2C79) (Phoenix dactylifera, UniProt A0A8B7C461); test: phosphopeptide phosphatase inhibition assay; conditions: read-out: % inhibition of PdPP2C79 at 10 μM ABA
T3 sequence (A0A8B7C461 1-202): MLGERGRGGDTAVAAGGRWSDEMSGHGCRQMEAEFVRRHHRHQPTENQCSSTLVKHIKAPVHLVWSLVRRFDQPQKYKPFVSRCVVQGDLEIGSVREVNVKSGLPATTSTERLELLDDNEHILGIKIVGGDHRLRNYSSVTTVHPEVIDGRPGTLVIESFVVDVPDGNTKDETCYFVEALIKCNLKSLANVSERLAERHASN

[4] = target: T4, Pd32 (with PdPP2C55) (Phoenix dactylifera, UniProt A0A8B7C461); test: phosphopeptide phosphatase inhibition assay; conditions: read-out: % inhibition of PdPP2C55 at 10 μM ABA
T4 sequence (A0A8B7C461 1-202): T3 sequence (A0A8B7C461 1-202)

SMILES: CCCN1C(=O)CCc2cc(NS(=O)(=O)Cc3ccc(C)cc3)ccc21 [quinabactin]
- inhibition at 10 µM [1]: 20 to 30%
- inhibition at 10 µM ([2]; read-out: % inhibition of HAB1 at 10 μM): 80%

SMILES: CC1=CC(=O)CC(C)(C)[C@@]1(O)/C=C/C(C)=C\C(=O)O [ABA]
- inhibition at 10 µM [3]: 30%
- inhibition at 10 µM [4]: 80%

SMILES: CCCN1C(=O)CCc2cc(NS(=O)(=O)Cc3c(F)c(F)c(C)c(F)c3F)ccc21 [AMF4]
- % inhibition of HAB1 at 10 μM ([2]; 10 μM agonist, 1 μM ΔNHAB1, 2 μM receptor, 15 mM pNPP, receptor agonist): 80%
